Source: patent US6048896A, “4-phenyl-4-oxo-2-butenoic acid derivatives with kynurenine-3-hydroxylase inhibiting activity” (Pharmacia & Upjohn S.p.A., priority 1995, dated 2000)

Assays:
kynurenine-3-hydroxylase [1] = molecular target: T1, kynurenine-3-hydroxylase (Rattus norvegicus, UniProt O88867); assay: Kynurenine-3-hydroxylase Assay in the Rat Brain; assay type: biochemical; design: from tissue; conditions: rat brain homogenate, 50 μM L-kynurenine, 60 min incubation, pH 7.5; read-out: Enzyme Inhibition (Brain) IC50
Protocol: Kynurenine-3-hydroxylase Assay in the Rat Brain
Brain was homogenized in ice-cold 0.32 M sucrose and centrifuged at 12000×g for 30 min at 4° C. The pellet was washed three times with 0.32 M sucrose by centrifugation and suspended in 0.14 M KCl in 20 mM K-phosphate buffer at pH 7 (1 g tissue in 2 ml buffer).
The reaction mixture contained: 75 μl of suspended homogenate; 100 μl of substrate solution containing 50 mM K-phosphate buffer pH 7.5, 2 mM MgCl2, 0.4 mM NADPH, 50 μM L-kynurenine (final concentration), and 25 μl of different concentrations of inhibitor solutions. The reaction was stopped by addition of 200 μl of 1 M HClO4 after 60 min incubation. L-3-hydroxykynurenine formed was quantified by HPLC with coulometric detection at a working voltage of +0.2 V. The column was a 10 cm C18 reversed phase (3 μm. The mobile phase consisted of 950 ml distilled water, 20 ml acetonitrile, 9 ml triethylamine, 5.9 ml phosphoric acid, 100 mg sodium EDTA and 1.5 g heptanesulfonic acid. The flow rate was 1 ml/min.

kynurenine-3-hydroxylase [2] = molecular target: T1, kynurenine-3-hydroxylase; assay: Kynurenine-3-hydroxylase Assay in the Rat Liver; assay type: biochemical; design: Rat liver mitochondrial extract was used as enzymatic preparation for this assay; from tissue; host or cells: rat liver mitochondrial extract; conditions: rat liver mitochondrial extract, 0.025 mM L-kynurenine, 37° C., 30 min, pH 8.1; read-out: Enzyme Inhibition (Liver) IC50
Protocol: Kynurenine-3-hydroxylase Assay in the Rat Liver
The assay for kynurenine 3-hydroxylase was based on the enzymatic synthesis of tritiated water during the hydroxylation reaction. Radiolabeled water was quantified following selective adsorption of the isotopic substrate and its metabolite with activated charcoal.
Rat liver mitochondrial extract was used as enzymatic preparation for this assay.
The assay for kynurenine 3-hydroxylase activity was carried out at 37° C. for a time of 30 min. The reaction mixture of a total volume of […] was constituted of […] of suspended extract, 100 mM Tris/Cl^- buffer pH 8.1, 10 mM EDTA, 100 mM KCl, 0.8 mM NADPH, 0.025 mM L-kynurenine, […] L-(3,5-^3 H)Kynurenine (10 Ci/mmol) and […] of different concentration of inhibitor solutions. After the incubation the reaction was terminated by the addition of 1 mL of 7.5% (w/v) activated charcoal, vortexed and centrifugated for 7 min.
A […] aliquot of supernatant was counted by scintillation spectroscopy in 5 ml of liquid scintillation.

CNS = conditions: cited from earlier work
[3] = system: ionotropic excitatory aminoacid receptors; conditions: preferentially at glycine co-agonist site of the NMDA receptor; cited from earlier work
neuronal cell cultures = conditions: relatively low concentrations, prolonged period of time or in combination with glutamate; cited from earlier work
[4] = system: N-methyl-D-aspartate (NMDA) receptor; conditions: cited from earlier work

T1 sequence (O88867 whole entry): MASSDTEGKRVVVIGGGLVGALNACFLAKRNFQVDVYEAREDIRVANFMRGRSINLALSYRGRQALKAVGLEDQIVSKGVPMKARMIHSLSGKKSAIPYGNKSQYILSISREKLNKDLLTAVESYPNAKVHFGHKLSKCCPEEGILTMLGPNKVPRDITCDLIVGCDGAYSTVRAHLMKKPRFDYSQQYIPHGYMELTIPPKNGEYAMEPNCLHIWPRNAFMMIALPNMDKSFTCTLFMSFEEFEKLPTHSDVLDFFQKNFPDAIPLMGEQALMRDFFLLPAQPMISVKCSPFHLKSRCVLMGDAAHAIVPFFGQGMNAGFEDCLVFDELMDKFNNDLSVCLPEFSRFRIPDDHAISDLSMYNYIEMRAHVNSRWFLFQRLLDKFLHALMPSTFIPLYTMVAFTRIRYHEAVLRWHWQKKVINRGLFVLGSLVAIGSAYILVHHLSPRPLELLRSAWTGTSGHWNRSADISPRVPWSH

Row | SMILES | IC50 (kynurenine-3-hydroxylase [1]) | IC50 (kynurenine-3-hydroxylase [2]) | other results
1 | O=C(O)/C(O)=C\C(=O)c1cccc(F)c1 [PNU 161217, (E)-2-hydroxy-4-(3'-fluorophenyl)-4-oxo-2-butenoic acid] | 0.97 µM | 2.8 µM | –
2 | O=C(O)/C=C/C(=O)c1cccc([N+](=O)[O-])c1 [PNU 158389, (E)-4-(3'-nitrophenyl)-4-oxo-2-butenoic acid] | 16.6 µM | 30.4 µM | –
3 | O=C(O)/C(O)=C\C(=O)c1cccc(Cl)c1 [PNU 161216, (E)-2-hydroxy-4-(3'-chlorophenyl)-4-oxo-2-butenoic acid] | 6.9 µM | 1.2 µM | –
4 | O=C(O)/C=C/C(=O)c1cccc(Cl)c1 [PNU 158390, (E)-4-(3'-chlorophenyl)-4-oxo-2-butenoic acid] | 20.4 µM | 21.9 µM | –
5 | C/C(=C\C(=O)c1ccc(Cl)c(Cl)c1)C(=O)O [PNU 158785, (E)-2-methyl-4-(3',4'-dichlorophenyl)-4-oxo-2-butenoic acid] | 3.4 µM | 23.5 µM | –
6 | COC(=O)/C(O)=C\C(=O)c1ccc(Cl)c(Cl)c1 [PNU 158775, Methyl-(E)-2-hydroxy-4-(3',4'-dichlorophenyl)-4-oxo-2-butenoate] | 0.95 µM | 6.9 µM | –
7 | O=C(O)/C=C/C(=O)c1ccc(Cl)c(Cl)c1 [PNU 157694, (E)-4-(3',4'-dichlorophenyl)-4-oxo-2-butenoic acid] | 0.9 µM | 10.4 µM | –
8 | CC(=CC(=O)O)C(=O)c1ccc(Cl)c(Cl)c1 [PNU 161213, 3-methyl-4-(3',4'-dichlorophenyl)-4-oxo-2-butenoic acid] | – | 26.2 µM | –
9 | O=C(O)/C(O)=C\C(=O)c1ccc(Cl)c(Cl)c1 [PNU 158776, (E)-2-hydroxy-4-(3',4'-dichlorophenyl)-4-oxo-2-butenoic acid] | 0.3 µM | 1.8 µM | –
10 | O=C(O)/C(O)=C\C(=O)c1ccc(Cl)cc1 [PNU 166909, (E)-2-hydroxy-4-(4'-chlorophenyl)-4-oxo-2-butenoic acid] | – | 8.9 µM | –
11 | O=C(O)/C=C/C(=O)c1ccc(F)c(F)c1 [PNU 157961, (E)-4-(3',4'-difluorophenyl)-4-oxo-2-butenoic acid] | 1.1 µM | 21.1 µM | –
12 | O=C(O)C=C(Cc1ccccc1)C(=O)c1ccc(Cl)c(Cl)c1 [PNU 167535, 3-benzyl-4-(3',4'-dichlorophenyl)-4-oxo-2-butenoic acid] | – | 12.3 µM | –
13 | O=C(O)c1cc(=O)c2ccccc2[nH]1 [KYNA, kynurenic acid] | – | – | prevention of excitotoxic neuronal damage evoked by QUIN (CNS; co-injected with QUIN): able to prevent the excitotoxic neuronal damage; effect when injected in the CNS (CNS): neuroprotective agent; anticonvulsant and neuroprotective properties (CNS; several animal models): anticonvulsant and neuroprotective properties; activity at ionotropic excitatory aminoacid receptors [3]: broad spectrum antagonist
14 | CCOC(=O)/C(O)=C\C(=O)c1ccc(Cl)c(Cl)c1 [PNU 161215, Ethyl-(E)-2-hydroxy-4-(3',4'-dichlorophenyl)-4-oxo-2-butenoate] | 2.01 µM | 1.9 µM | –
15 | O=C(O)/C=C/C(=O)c1cccc(F)c1 [PNU 158388, (E)-4-(3'-fluorophenyl)-4-oxo-2-butenoic acid] | 21.8 µM | 38.6 µM | –
16 | O=C(O)c1cccnc1C(=O)O [QUIN, quinolinic acid] | – | – | neurotoxicity in neuronal cell cultures (neuronal cell cultures): neurotoxic; in vivo convulsions and lesions (CNS; in vivo): produce convulsions and axon sparing lesions; effect when injected in the CNS (CNS): neurotoxin; activity at NMDA receptor [4]: highly selective agonist
17 | O=C(O)/C(O)=C\C(=O)c1ccc(F)c(F)c1 [PNU 161219, (E)-2-hydroxy-4-(3',4'-difluorophenyl)-4-oxo-2-butenoic acid] | 0.44 µM | 1.2 µM | –
